Columns and labels:
HCV CORE = assay: Western blotting against HCV CORE in JFH-1 infected Huh 7.5.1 cells; type: cell-based, Hepatitis C virus (JFH-1); details: 10 μM, 25 μM and 50 μM
Protocol: (§1) The experiment was carried out as follow. First, 200,000 Huh 7.5.1 cells were placed in a 60×15 mm cell culture dish. Next day, Japanese Fulminant Hepatitis-1 virus (JFH-1) stock vial which was stored in −70° C. refrigerator was taken out and thawed out in a container filled with ice-water. The culture medium was collected from the cultured 60×15 mm cell culture dish, washed with 1×PBS and collected, again. 1.5 ml of JFH-1 virus solution per 60×15 mm cell culture dish each was added. The dish was shaken to cover the surface sufficiently. The dish was laid in a 5% CO2 incubator at 37° C. for 6 hours and after that, the supernatant was draw out. 1×PBS was spread on the cell surface as slow as possible and after one time washing, cells were collected. 5 ml of cell culture media was added to control and JFH-1 treatments groups. At the last step of virus-infection, 5 ml CM and each […] of ginsenosides which was set to 50 mM concentration were added to the cell culture media. After that, the cell culture media was laid in a 5% CO2 incubator at 37° C. After 72 hours, the following steps were carried out.
As described in the above Example 3, the Huh 7.5.1 cells were treated with each 100 μM of seven ginsenosides (Ro, Re, Rg1, Rg2, Rg3, Rh1, Rh2). After 72 hours, a western blotting analysis was carried out for analyzing virus suppression effect against HCV CORE and cleaved PARP.
Specific western blotting analysis carried out was as follow. First, the above described samples were prepared, mixed with a sample buffer in tubes and heated at 100° C. for 10 minutes. The tubes were cooled on ice and centrifuged. The electrophoresis was carried out with the above samples and molecular weight markers, and then they were transferred to a PVDF membrane (hydrophobic). After blocking with 5% skin milk for an hour, each primary antibody was added. After staying overnight at 4° C., washings three times for every 10 minutes were conducted, and the blocking was carried out with 5% skin milk for an hour at the room temperature. After that, each secondary antibody was added, and the reaction for an hour and washing three times for every 10 minutes were conducted. Then, the membrane was stained by 1:1 mix with detection reagents A (Luminol Enhancer solution) and B (Peroxide solution) and developed with X ray film.
To examine the dose-dependent anti-virus effect of ginsenoside Rg3, western blotting analysis against cleaved PARP and HCV CORE were carried out with the samples of ginsenosides Rg3 treatment concentration at 10 μM, 25 μM, 50 μM and 100 μM each.
To examine the dose-dependent anti-virus effect of ginsenoside Rh2, western blotting analysis against cleaved PARP and HCV CORE were carried out with the samples of ginsenosides Rh2 treatment concentration at 10 μM, 25 μM and 50 μM each. […]

[1] = tested on: JFH-1 virus infected Huh 7.5.1 cell; assay: MTT assay, cytotoxicity of ginsenosides on liver cancer cell line; type: cell-based; details: 100 μM, 72 hours
Protocol: MTT assay was conducted to identify cytotoxicity of ginsenosides.
Specifically, the cells (Huh7.5.1) were seeded at the rate of 1×10^4 cells (in 100 μL)/well in 96 well plates, and incubated in 5% CO2 incubator for less than 24 hours. And after the samples were washed with 1×PBS once and treated with the rate of 50 ul JFH-1 virus/well, and replaced in the 5%, CO2 incubator for six hours. After taking out the cell samples from the incubator, the samples were washed with 1×PBS once and replaced in the culturing media comprising 10, 25, 50 and 100 μL concentration of the above stated seven (7) ginsenosides in Example 3, respectively. After the cells were incubated in 5% CO2 incubator for 72 hours, 20 μl of assay reagent, EZ Cytox, was seeded into each well with the care of no bubble producing. And then, the treated cells were incubated in 5% CO2 incubator for 2.5 hours, followed by examining absorbance at 420 nm with Microplate Reader (Molecular Devices, Minn.). DMSO was the solvent used when treating with ginsenoside, and both the control group and the cells infected with JFH-1 group were also treated with the solvent DMSO.

[2] = tested on: Huh 7.5.1 cells infected with JFH-1 virus; assay: Microscopic identification of virus suppression effect (cell shape, phase contrast microscope); type: cell-based; details: 100 μM; for shapes of Huh 7.5.1 cells: JFH-1 infected
Protocol: About 200,000 Huh 7.5.1 cells were added to a 60×15 mm cell culture dish and every 100 μM of seven ginsenosides (Ro, Re, Rg1, Rg2, Rg3, Rh1, Rh2) per 60×15 mm cell culture dish each was treated. Since it was necessary for ginsenosides in powder formulation to make solutions for the experiments, 50 mM basic concentration solutions for the seven ginsenosides each were prepared and the basic solutions were refrigerated at 4° C. until they were needed.
Non-treatment group (Control), Non-treatment group and DMSO 10 μl treatment group (Control+DMSO 10 μl), JFH-1 virus treatment group (Only JFH-1), JFH-1 virus and DMSO 10 μl treatments group (JFH-1+DMSO 10 μl), JFH-1 virus and Ro 100 uM treatments group (JFH-1+Ro 100 uM), JFH-1 virus and Re 100 uM treatments group (JFH-1+Re 100 uM), JFH-1 virus and Rg1 100 uM treatments group (JFH-1+Rg1 100 uM), JFH-1 virus and Rg2 100 uM treatments group (JFH-1+Rg2 100 uM), JFH-1 virus and Rg3 100 uM treatments group (JFH-1+Rg3 100 uM), JFH-1 virus and Rh1 100 uM treatments group (JFH-1+Rh1 100 uM), JFH-1 virus and Rh2 100 uM treatments group (JFH-1+Rh2 100 uM), JFH-1 virus and Rg1 100 uM treatments group (JFH-1+Rg1 100 uM).
as §1
As described in the above Example 3, each 100 μM of seven ginsenosides (Ro, Re, Rg1, Rg2, Rg3, Rh1, Rh2) was treated to Huh 7.5.1 cells. After 24 hours and 72 hours, the shapes of Huh 7.5.1 cells were observed using a phase contrast microscope (ECLIPSE TE300, Nicon) of 400× magnifications.

**Q.** CC(C)=CCC[C@](C)(O)[C@H]1CC[C@]2(C)[C@@H]1[C@H](O)C[C@@H]1[C@@]3(C)CC[C@H](O[C@@H]4O[C@H](CO)[C@@H](O)[C@H](O)[C@H]4O)C(C)(C)[C@@H]3CC[C@]12C [ginsenoside Rh2, reference compound] was tested. Which “virus suppression effect (HCV CORE), dose dependence” value (HCV CORE) did it give?
**A.** dose-dependent manner

**Q.** What about the “cytotoxicity (MTT assay)” value [1] of the same compound?
**A.** cytotoxic effect was shown predominantly

**Q.** What about the “cell survival under treatment” value [2] of the same compound?
**A.** all cells became extinct

**Q.** And the “shapes of Huh 7.5.1 cells” value ([2]; 24 hours after treatment)?
**A.** No cell were remained due to the apoptosis of all cells

**Q.** And the “shapes of Huh 7.5.1 cells” value ([2]; 72 hours after treatment)?
**A.** No cell were remained due to the apoptosis of all cells

Source: patent US8865659B2, “Compositions for prevention or treatment of Hepatitis C virus containing ginsenoside Rg3 as an active ingredient” (priority 2012, dated 2014)
